Assay results: patent publication US6211203A, “Benzofuran-4-carboxamides” (Byk Gulden Lomberg Chemische Fabrik GmbH, priority 1996, dated 2001)

System: PDE IV
Experiment: Inhibition of PDE IV activity
Format: biochemical
Conditions: Inhibition of PDE IV activity (Table A)

Row | SMILES | -log IC50
1 | COc1ccc(C(=O)Nc2c(Cl)cncc2Cl)c2cc(C)oc12 [Compound 1, N-(3,5-Dichloropyrid-4-yl)-7-methoxy-2-methylbenzofuran-4-carboxamide] | 8.42
2 | COc1ccc(C(=O)Nc2c(Cl)cncc2Cl)c2cc(C(C)C)oc12 [Compound 2, N-(3,5-Dichloropyrid-4-yl)-7-methoxy-2-(1-methylethyl)benzofuran-4-carboxamide] | 9.28
3 | COc1ccc(C(=O)Nc2c(Cl)cncc2Cl)c2cc(C(C)C)oc12 [Compound 3, N-(3,5-Dichloropyrid-4-yl)-7-methoxy-2-(1-methylethyl)benzofuran-4-carboxamide] | 8.18
4 | CC(C)c1cc2c(C(=O)Nc3c(Cl)cncc3Cl)ccc(OC(F)F)c2o1 [Compound 4, N-(3,5-Dichloropyrid-4-yl)-7-difluoromethoxy-2-(1-methylethyl)benzofuran-4-carboxamide] | 9.72
5 | COc1ccc(C(=O)Nc2c(Cl)cncc2Cl)c2cc(C3CCCC3)oc12 [Compound 5, N-(3,5-Dichloropyrid-4-yl)-2-cyclopentyl-7-methoxybenzofuran-4-carboxamide] | 8.80
